Read-outs that look alike come from different tables or passages of the source.
Assays:
[1] = tested on: L. mexicana Cas9 promastigotes; experiment: Alamar blue drug sensitivity assay, L. mexicana Cas9 promastigotes; assay type: cell-based, Leishmania mexicana; conditions: 72 h + 48 h resazurin, at least 3 independent determinations
Source text: (§1) We used L. mexicana promastigotes of the Cas9 strain developed by Beneke at al. to generate the ΔNT1 strain, and from there the Cas9^ΔNT1+TcrNT2 (see below); The original Cas9 strain was generously donated by Prof. Eva Gluenz (University of Bern, Switzerland). All strains in standard HOMEM (GIBCO, Life Technologies, Paisley, UK) supplemented with 10% heat-inactivated fetal bovine serum (FBS; PAA Laboratories, Linz, Austria) and 1% of a penicillin–streptomycin solution (10,000 U mL^−1 each; Life Technologies) at 25 °C, as described.
(§2) The Alamar blue assay (resazurin sodium salt) was used to determine the drug sensitivity of the L. mexicana promastigotes in vitro. The assay is based on the reduction of resazurin sodium salt (blue and non-fluorescent) to resorufin (pink color and fluorescent) by live cells. HOMEM medium with 10% FBS (100 μL) was added to all wells of a white 96-well plate apart from the first well. 200 μL of a known concentration of test compounds was diluted in HOMEM medium and placed in the first well. Compounds were tested in one plate and every compound was diluted over two rows (23 concentrations), leaving the last well of every dilution as a negative control having 100 μL HOMEM medium. Next, 100 μL of L. mexicana culture at a density of 2 × 10^6 cells mL^−1 was added into every well in the plate and incubated for 72 h at a temperature of 25 °C after which resazurin sodium salt (Sigma) (20 μL of a solution of 12.5 mg in 100 mL PBS) was added and the plate was incubated under the same conditions for a further 48 h. Fluorescence was measured in a FLUOstar OPTIMA plate reader (BMG Labtech, Germany), at a wavelength of 544 nm for excitation and 620 nm for emission. The EC50 values and fluorescence data were determined and plotted by the GraphPad Prism 8 Software using an equation for a sigmoid curve with variable slope. Pentamidine was used as positive control and every experiment was performed 3–4 times independently.

[2] = tested on: L. mexicana Cas9^ΔNT1 promastigotes; experiment: Alamar blue drug sensitivity assay, L. mexicana Cas9^ΔNT1 promastigotes; assay type: cell-based, Leishmania mexicana; conditions: L. mexicana Cas9^ΔNT1 promastigotes, 72 h + 48 h resazurin
Source text: as §1, §2

[3] = tested on: L. mexicana Cas9^ΔNT1+TcrNT2 promastigotes; experiment: Alamar blue drug sensitivity assay, L. mexicana Cas9^ΔNT1+TcrNT2 promastigotes; assay type: cell-based, Leishmania mexicana; conditions: L. mexicana Cas9^ΔNT1+TcrNT2 promastigotes, 72 h + 48 h resazurin
Source text: as §1, §2

[4] = tested on: T. cruzi epimastigotes (CL Brener strain); experiment: In vitro inhibition of proliferation of T. cruzi epimastigotes; assay type: cell-based, Trypanosoma cruzi; conditions: cell densities at the 5th day of proliferation, four independent experiments
Experimental: Trypomastigotes were obtained by infecting CHO-K1 cells. CHO-K1 cells were cultivated in RPMI-1640 medium supplemented with 10% heat-inactivated fetal calf serum (FCS), 0.15% (w/v) […], 100 µg mL^−1 penicillin and 130 µg mL^−1 streptomycin and incubated at 37 °C in a humidified atmosphere containing 5% CO2. CHO-K1 cells were initially incubated with metacyclic trypomastigotes obtained by in vitro differentiation of epimastigotes as previously described (multiplicity of infection: 50 parasites per cell) for 4 h. After washing out the non-internalized parasites, the cells were incubated overnight in RPMI medium supplemented with 10% FCS at 37 °C and then maintained at 33 °C in a humidified atmosphere containing 5% CO2 as previously reported. Infected cells were maintained at 33 °C in the presence of 10% FCS. Infected cell-derived trypomastigotes started to burst into the culture medium at the 5th day post-infection. Trypomastigotes collected at day 5 or 6 post infection were used for the viability assays.
The density of exponentially proliferating epimastigotes for each assay was adjusted to 2.0 × 10^6 parasites mL^−1, transferred into 96-well plates (200 μL/well) and incubated with different concentrations of the compounds 5-F-2′-deoxyuridine, 5-F-uracil, 5-F-uridine or benznidazole. A combination of 60 μM rotenone and 0.5 μM antimycin (RA) was used as a positive control for proliferation inhibition (positive control), as previously described. […] The epimastigote proliferation was measured as previously reported, by reading the optical density (OD) at 620 nm every 24 h for 9 days (which collects readings through the exponential and stationary phases). […] The half-maximal inhibitory concentrations (IC50) were determined during the exponential growth phase (fifth day) by adjusting a sigmoidal dose-response function to experimentally obtained data using GraphPad Prism 8. The compounds were assessed in quadruplicate in each experiment, and the results correspond to four independent experiments.

[5] = tested on: L. mexicana Cas9 promastigotes; parameters: method as in de Almeida Fiuza et al. [41]; conditions: starred values, ref de Almeida Fiuza et al. [41], read-out: EC50 (µM) AVG ± SEM, Cas9; cited from earlier work
[6] = tested on: L. mexicana Cas9^ΔNT1 promastigotes; parameters: method as in de Almeida Fiuza et al. [41]; conditions: starred values, ref de Almeida Fiuza et al. [41], cited from earlier work; for EC50: L. mexicana Cas9^ΔNT1 promastigotes, read-out: EC50 (µM) AVG ± SEM, L. mexicana Cas9^ΔNT1; for RF vs. Cas9 (resistance factor): EC50 Cas9^ΔNT1 relative to Cas9
[7] = tested on: L. mexicana Cas9^ΔNT1+TcrNT2 promastigotes; parameters: method as in de Almeida Fiuza et al. [41]; conditions: starred values, ref de Almeida Fiuza et al. [41], cited from earlier work; for EC50: L. mexicana Cas9^ΔNT1+TcrNT2 promastigotes, read-out: EC50 (µM) AVG ± SEM, L. mexicana Cas9^ΔNT1+TcrNT2; for RF vs. ΔNT1 (resistance factor): Cas9^ΔNT1+TcrNT2 in comparison to Cas9^ΔNT1
TcrNT2 = TcrNT2 (Trypanosoma cruzi, UniProt Q4DHG0); conditions: ref Campagnaro et al. [30], cited from earlier work
NT1 transport activity = tested on: NT1 transport activity; parameters: method as in PMID 28453984; conditions: NT1 transport activity in L. mexicana; ref [36]; cited from earlier work
[8] = tested on: intracellular T. cruzi amastigotes; conditions: intracellular amastigotes; ref [16]; read-out: EC50 against intracellular T. cruzi amastigotes; cited from earlier work
[9] = substrate: Cc1cn([C@H]2C[C@H](O)[C@@H](CO)O2)c(=O)[nH]c1=O; experiment: Transport of [^3H]-thymidine by TcrNT2 expressed in L. mexicana Cas9^ΔNT1 (Km, inhibition); assay type: cell-based, Trypanosoma cruzi; conditions: other: TcrNT2 in L. mexicana Cas9^ΔNT1, […] [^3H]-thymidine, 5 min, n = 3
Experimental: These values can be used to calculate the Gibbs free energy of interaction ΔG°, but these experiments cannot distinguish between the test compound being transported or merely binding to the transporter and inhibiting the transit of the [^3H]-thymidine.
Transport assays were conducted with radiolabeled nucleosides [methyl-^3H]-thymidine (20 Ci/mmol; PerkinElmer (Waltham, MA, USA)) and [2,8-^3H]-adenosine (40 Ci/mmol; American Radiolabeled Chemicals (ARC, St-Louis, MO, USA)). Cells were harvested from mid-log phase cultures by centrifugation and washed into an assay buffer (AB) as described, at a density of 1 × 10^8 cells mL^−1. Transport assays were then performed exactly as described previously, using an oil-stop protocol. […]
Michaelis-Menten constants (Km) were calculated by plotting transport rates of [^3H]-substrate against the concentration, using the Michaelis-Menten equation V0 = Vmax([substrate]/([substrate] + Km)) and non-linear regression in GraphPad Prism 8. Inhibition constants (Ki) were calculated using the Cheng-Prusoff equation: Ki = IC50/(1 + (L/Km)), where L represents the radiolabel concentration. […]

| Molecule | EC50 [5] | EC50 [6] | EC50 [7] | RF vs. Cas9 (resistance factor) [6] | RF vs. ΔNT1 (resistance factor) [7] | further results |
| --- | --- | --- | --- | --- | --- | --- |
| O=c1[nH]cc(F)c(=O)[nH]1 [5-F-uracil] |  |  |  |  |  | EC50 (µM) AVG ± SEM, Cas9 [1]: poorly active; EC50 (µM) AVG ± SEM, L. mexicana Cas9^ΔNT1 [2]: poorly active; EC50 (µM) AVG ± SEM, L. mexicana Cas9^ΔNT1+TcrNT2 [3]: poorly active; IC50 [4]: 25.9 ± 0.01 µM |
| Nc1ncnc2c1c(-c1ccc(Cl)c(F)c1)cn2[C@@H]1O[C@H](CO)[C@@H](O)[C@H]1O [FH10714] | > 500 µM | > 500 µM | > 500 µM |  |  |  |
| Nc1ncnc2c1ncn2[C@@H]1O[C@H](CO)[C@@H](O)[C@H]1O [Adenosine] |  |  |  |  |  | Ki (TcrNT2; earlier characterization, TcrNT2 expressed in T. brucei, read-out: Ki on thymidine transport by TcrNT2): 1560 ± 60 µM; ΔG° (Gibbs free energy of interaction) (TcrNT2; from cited Ki): -3.78 kcal/mol; Km (NT1 transport activity): 0.81 ± 0.16 µM |
| Nc1ncnc2c1c(Cl)cn2[C@@H]1O[C@H](CO)[C@@H](O)[C@H]1O [FH3169] | 0.24 ± 0.055 µM | 2 ± 0.19 µM | 0.32 ± 0.05 µM | 8.43 | 6.26 |  |
| Nc1ncnc2c1c(-c1ccc(Cl)c(Cl)c1)cn2[C@@H]1O[C@H](CO)[C@@H](O)[C@H]1O [FH3147, 7-(3,4-dichlorophenyl)-tubercidin] | 8.41 ± 1.61 µM | > 100 µM | 13.7 ± 1.25 µM | >11.8 |  | EC50 [8]: 0.19 µM |
| Nc1ncnc2c1c(-c1ccc(Cl)cc1)cn2[C@@H]1O[C@H](CO)[C@@H](O)[C@H]1O [TH1012] | 52.5 ± 0.3 µM | 280 ± 18 µM | 96.6 ± 0.3 µM | 5.3 | 2.90 |  |
| Nc1ncnc2c1c(-c1ccccc1)cn2[C@@H]1O[C@H](CO)[C@@H](O)[C@H]1O [TH1004] | 37 ± 0.23 µM | 138 ± 10 µM | 101 ± 0.5 µM | 3.7 | 1.37 |  |
| O=c1[nH]c(=O)n([C@@H]2O[C@H](CO)[C@@H](O)[C@H]2O)cc1F [5-F-uridine] |  |  |  |  |  | EC50 ([1]; read-out: EC50 (µM) AVG ± SEM, Cas9): > 500 µM; EC50 ([2]; read-out: EC50 (µM) AVG ± SEM, L. mexicana Cas9^ΔNT1): > 500 µM; EC50 ([3]; read-out: EC50 (µM) AVG ± SEM, L. mexicana Cas9^ΔNT1+TcrNT2): > 500 µM; IC50 [4]: > 500 µM |
| TcrNT2 (Trypanosoma cruzi strain CL Brener) (protein) MGLGFEFWGEAYSYAAAIMCGLSMLLPINAIFSAPLYIMNYYQYVMHDPNAVAKHKNFWDNALTYYSMLIMLVALIVEPLTLSEAFRRIPIRLRMLSALSMFWLEIIILMSVPAAGSTEAGAISAIVCASFSSALGKSVFESTAYGLFGVFPSRFNTALMGGVGVAGALASILQLIVKASLPQDYSGIRTQSKIYYGLMAGIHGITFIMVVGLHWVPFAQRYINALSGGTSSPASNNPDQAAESETEAASKANEKSAPKATNGGDDNADSGRLVNTNVIFVLKCVYPMLSACGFNFFITLFLFPTIVVSVDPDDYWYGTVAVCIFNVCDVCGRFSPSLKCLWPPRWVVLVGSFSRVVFVPLLILASYHYIPSHAYNYVMMVIFGLSNGYIGALAITLGPLTRNLETSGQRFVAGTMFGISILIGGTIGSALSILVQTLRG |  |  |  |  |  | Km [9]: 0.263 µM; Km ([9]; […]): 0.26 ± 0.05 µM |
